Key:
[1] = system: bronchospasms elicited by histamine; test: Bronchodilator activity against histamine bronchospasm (Konzett procedure); type: in vivo, guinea pigs; settings: Cavia porcellus; guinea pig, three logarithmic cumulative intravenous doses
Description: (§1) Bronchodilator activity is determined in guinea pigs against bronchospasms elicited by intravenous injections of 5-hydroxytryptamine, histamine or acetylcholine by the Konzett procedure. [See J. Lulling, P. Lievens, F. El Sayed and J. Prignot, Arzeneimittel-Forschung, 18, 995 (1968).] In Table B bronchodilator activity for representative compounds of this invention against one or more of the three spasmogenic agents is expressed as an ED50 determined from the results obtained with three logarithmic cumulative intravenous doses.

[2] = system: bronchospasms elicited by 5-hydroxytryptamine; test: Bronchodilator activity against 5-hydroxytryptamine bronchospasm (Konzett procedure); type: in vivo, guinea pigs; settings: Cavia porcellus; guinea pig, three logarithmic cumulative intravenous doses
Description: as §1

[3] = system: adenosine diphosphate induced platelet aggregation (human protein rich plasma); test: Inhibition of Platelet Aggregation - In Vitro, adenosine diphosphate induced; type: cell-based; set-up: key: (-): Inhibition; (+): No inhibition
Source text: (§2) It is well known that platelet aggregation inhibitors may be useful as anti-thrombotic drugs. Inhibition of platelet aggregation can be conveniently measured in vitro by monitoring changes in optical density and/or light transmission in platelet rich plasma upon addition of suitable aggregating agents such as adenosine diphosphate, epinephrine, thrombin or collagen. Alternatively, platelet aggregation can be measured in vitro using platelet rich plasma obtained at various time intervals from animals given inhibitors by an oral or parenteral route.
(§3) Human […] is incubated with modified Tyrode's solution in a proportion of 40-50% human […]. The test compounds are added at varying concentrations and after 5 minutes incubation, an aggregating agent such as adenosine diphosphate or collagen is added. The change in optical density (light transmission) is monitored by eye and inhibition is recorded as a (-) or lack of inhibition is recorded as a (+). Test compounds are considered active if they inhibit adenosine diphosphate or collagen induced aggregation at a concentration of 25 mcg/ml or less within 5-10 minutes.

[4] = system: collagen induced platelet aggregation (human protein rich plasma); test: Inhibition of Platelet Aggregation - In Vitro, collagen induced; type: cell-based; set-up: key: (-): Inhibition; (+): No inhibition
Source text: as §2, §3

[5] = system: bronchospasms elicited by acetylcholine; test: Bronchodilator activity against acetylcholine bronchospasm (Konzett procedure); type: in vivo, guinea pigs; settings: Cavia porcellus; guinea pig, three logarithmic cumulative intravenous doses
Description: as §1

SMILES: O=C(O)CCC/C=C\C[C@@H]1C(=O)C=C[C@H]1/C=C/C1(O)CCCCC1 (relative stereo) [nat-(and ent)-15-hydroxy-9-oxo-15,16-tetramethylene-17,18,19,20-tetranor-5-cis-10,13-trans-prostatrienoic Acid]
- ED50 [1]: 0.632 µg/kg
- ED50 [2]: > 3.2 µg/kg
- Inhibition of platelet aggregation, adenosine diphosphate ([3]; drug concentration 25 μg/ml): (+)
- Inhibition of platelet aggregation, adenosine diphosphate ([3]; drug concentration 250 μg/ml): (-)
- Inhibition of platelet aggregation, collagen ([4]; drug concentration 25 μg/ml): (+)
- Inhibition of platelet aggregation, collagen ([4]; drug concentration 250 μg/ml): (-)
- ED50 [5]: > 3.2 µg/kg

SMILES: N#CC1CC(=O)C(CC=CCCCC(=O)O)C1C=CC1(O)CCCCC1 (stereo not drawn) [nat(and ent)-11α/βCyano-15-hydroxy-9-ozxo-15, 16-tetramethylene-17,18,19,20-tetranor-5-cis-13-trans-prostadienoic Acid]
- ED50 [1]: 0.367 µg/kg
- ED50 [2]: 1.81 µg/kg
- Inhibition of platelet aggregation, adenosine diphosphate ([3]; drug concentration 2.5 μg/ml): (-)
- Inhibition of platelet aggregation, adenosine diphosphate ([3]; drug concentration 25 μg/ml): (-)
- Inhibition of platelet aggregation, adenosine diphosphate ([3]; drug concentration 250 μg/ml): (-)
- Inhibition of platelet aggregation, collagen ([4]; drug concentration 25 μg/ml): (-)
- Inhibition of platelet aggregation, collagen ([4]; drug concentration 250 μg/ml): (-)
- ED50 [5]: 2.74 µg/kg

Source: patent US4202988A, “Prostenoic acids and esters” (American Cyanamid Company, priority 1977, dated 1980)
